For 24 compounds, GI50, Emax and IC50 results are on record in patent US11926619B2, “Certain pladienolide compounds and methods of use” (EISAI R&D MANAGEMENT CO., LTD., priority 2018, dated 2024).

For assay [1], the system named is WiDr cells (colon cancer cells; wildtype SF3B1). The experiment in a line: Cell viability assay (CellTiter-Glo, 72 hr), WiDr cells. Type of assay: cell-based. To be noted: Homo sapiens; WiDr cells (wildtype SF3B1); read-out: WiDr GI50. The procedure, abridged:
(§1)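 Cells at 2000/well were exposed to 9 compound concentrations (0.1% DMSO) in duplicate or triplicate for 72 hr at 37 °C. ATP was read by CellTiter-Glo against a time-zero plate and DMSO control growth. Percent growth/viability was plotted against concentration to give Emax; negative values indicate lethality.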

In assay [2] the test system is WiDr-R cells (colon cancer cells; chemically-induced SF3B1 R1074H mutant). As to the kind of experiment: Cell viability assay (CellTiter-Glo, 72 hr), resistant WiDr-R cells (counter-screen). Type of assay: cell-based. To be noted: WiDr-R cells (SF3B1 R1074H mutation, resistant); read-out: WiDr-R GI50. The procedure, abridged:
as §1

Assay [3] deals with Panc 05.04 cells (pancreatic cancer cells; Q699H and K700E mutations in SF3B1). The experiment in a line: Cell viability assay (CellTiter-Glo, 72 hr), Panc 05.04 cells. Type of assay: cell-based. To be noted: Panc 05.04 cells (mutant SF3B1); for Emax: maximum achievable response in tested dose range, negative value = cellular lethality, read-out: Panc 05.04 (mt SF3B1 cells) Emax (%); for GI50: read-out: Panc 05.04 (mt SF3B1 cells), GI50. The procedure, abridged: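 Viability was read as ATP content (CellTiter-Glo) after 72 hr compound exposure of Panc 05.04 cells at 37 °C, nine concentrations, 0.1% DMSO. Percentage growth was referenced to time-zero and vehicle wells and plotted against concentration to obtain Emax; negative Emax denotes cell killing.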

Another assay concerns the target T1, SF3b complexes (Homo sapiens, UniProt O75533+Q7RTV0).
T1 construct: endogenous in cells
As to the kind of experiment: Scintillation proximity assay (SPA) with [3H]-labelled pladienolide probe. The conditions noted are these: wt SF3B1, read-out: SPA (wt SF3B1 cells) IC50. Type of assay: binding. On the procedure: Batch immobilization of anti-SF3B1 antibody (MBL) to anti-mouse PVT SPA scintillation beads (PerkinElmer) was prepared as follows: for every 2.5 mg of nuclear extracts, 5 μg anti-SF3B1 antibody and 1.5 mg of beads were mixed in 150 μl PBS. The antibody-bead mixture was incubated for 30 min at RT and centrifuged at 18,000 g for 5 min. 150 μl PBS was used to resuspend every 1.5 mg antibody-bead mixture. The beads were suspended and added to the prepared nuclear extracts. The slurry was incubated for 2 h at 4° C. with gentle mixing. The beads were then collected by centrifuging at 18,000 g for 5 min, and washed twice with PBS+0.1% Triton X-100. After a final centrifugation step, every 1.5 mg of beads was suspended with 150 μl of PBS. The SF3b complexes were tested for [^3H]-labelled pladienolide probe binding ([^3H]-PB), synthesized as previously described (Kotake et al., 2007). 100 μL binding reactions were prepared with 50 μl bead slurry and by adding varying concentrations of PB or PB—OH, and after 30 min pre-incubation, 2.5 nM [^3H]—PB was added. The mixture was incubated for 30 min, and luminescence signals were read using a MicroBeta2 Plate Counter (PerkinElmer). Prism 6 (Graphpad) was used for non-linear regression curve fitting of the data.

With `C/C(=C\C=C\[C@@H](C)COC(=O)N1CC[C@@H](O)C1)[C@H]1OC(=O)CCCCC[C@@H](OC(=O)N2CCN(C)CC2)/C=C/[C@@H]1C`, the concentration for 50% growth inhibition (GI50) in assay [1] was determined as 8.59 nM; in assay [2] it was 2840 nM; in assay [3], 6.48 nM. Also, the Emax in assay [3] is -87%. Also, at SF3b complexes, the IC50 amounted to 5.42 nM.
The corresponding values for `CCCNC(=O)OC[C@H](C)/C=C/C=C(\C)[C@H]1OC(=O)C[C@H](O)CC[C@@](C)(O)[C@@H](OC(C)=O)/C=C/[C@@H]1C` are 1940 nM, greater than 10000 nM, 4590 nM, 40.5% and 473 nM.
The corresponding values for `C/C(=C\C=C\[C@@H](C)COC(=O)N1CC[C@@H](N(C)C)C1)[C@H]1OC(=O)C[C@H](O)CC[C@@](C)(O)[C@@H](OC(=O)N2CCN(C3CCCCCC3)CC2)/C=C/[C@@H]1C` are 30.2 nM, 3990 nM, 33 nM, -85.4% and 9.7 nM.
The corresponding values for `CC(=O)O[C@H]1/C=C/[C@H](C)[C@@H](/C(C)=C/C=C/[C@@H](C)COC(=O)N2CCN(C)CC2)OC(=O)C[C@H](O)CC[C@@]1(C)O` are 106 nM, greater than 1000 nM, 203 nM, -88.8% and 236 nM.
Consider `C/C(=C\C=C\[C@@H](C)c1ccccn1)[C@H]1OC(=O)C[C@H](O)CC[C@@](C)(O)[C@@H](OC(=O)N2CCOCC2)/C=C/[C@@H]1C`, for which the results for the GI50 in assay [1], in assay [2] and in assay [3] were greater than 1000 nM, greater than 1000 nM and 2550 nM, respectively. The Emax in assay [3] worked out at 35.3%. For the same compound, on SF3b complexes, the IC50 turned out to be 480 nM.
For the compound `COC[C@@H]1CCCN1C(=O)OC[C@H](C)/C=C/C=C(\C)[C@H]1OC(=O)C[C@H](O)CC[C@@](C)(O)[C@@H](OC(=O)N2CCN(C3CCCCCC3)CC2)/C=C/[C@@H]1C`, the concentration for 50% growth inhibition (GI50) in assay [1] was 29.1 nM; in assay [2], greater than 1000 nM; in assay [3] it was 11.9 nM. The Emax in assay [3] is -89.1%. For the same compound, the IC50 on SF3b complexes is 16.8 nM.
The matching figures for `C/C(=C\C=C\[C@@H](C)c1ccccn1)[C@H]1OC(=O)C[C@H](O)CC[C@H](C)[C@@H](OC(=O)N2CCN(C)CC2)/C=C/[C@@H]1C`: 15.3 nM, greater than 10000 nM, 8.07 nM, -94.3% and 3.78 nM.
The corresponding values for `C/C(=C\C=C\[C@H](C)COC(=O)N1CCCC1)[C@H]1OC(=O)C[C@H](O)CC[C@@](C)(O)[C@@H](OC(=O)N2CCN(C3CCCCCC3)CC2)/C=C/[C@@H]1C` are 11.8 nM, 862 nM, 11.7 nM, -93.5% and 11.6 nM.
The matching figures for `C/C(=C\C=C\[C@@H](C)COC(=O)N1CCCC1)[C@H]1OC(=O)CCCCC[C@@H](NC(=O)N2CCN(C)CC2)/C=C/[C@@H]1C`: 18.5 nM, greater than 1000 nM, 19 nM, -93.6% and 14.4 nM.
As for `CC(=O)O[C@H]1/C=C/[C@H](C)[C@@H](/C(C)=C/C=C/[C@@H](C)COC(=O)N2CCCC2)OC(=O)C[C@H](O)CC[C@@]1(C)O`, the GI50 was 4.83 nM in assay [1], greater than 1000 nM in assay [2] and 20.1 nM in assay [3]. Besides, the Emax in assay [3] is -94.1%. Also, the 50% inhibitory concentration (IC50) on SF3b complexes stood at 2.75 nM.
The matching figures for `CC(=O)O[C@H]1/C=C/[C@H](C)[C@@H](/C(C)=C/C=C/[C@@H](C)COC(=O)N2CC[C@H](O)C2)OC(=O)C[C@H](O)CC[C@@]1(C)O`: 51.5 nM, greater than 10000 nM, 45.1 nM, -89.6% and 96.5 nM.
The corresponding values for `CC(=O)O[C@H]1/C=C/[C@H](C)[C@@H](/C(C)=C/C=C/[C@@H](C)COC(=O)N(C)C(C)C)OC(=O)C[C@H](O)CC[C@@]1(C)O` are 32.6 nM, greater than 10000 nM, 54.6 nM, -87.4% and 4.85 nM.
The corresponding values for `C/C(=C\C=C\[C@@H](C)COC(=O)N1CCCC1)[C@H]1OC(=O)C[C@H](O)CC[C@@](C)(O)[C@@H](OC(=O)N2CCN(C)CC2)/C=C/[C@@H]1C` are 3.83 nM, greater than 1000 nM, 3.05 nM, -90.3% and 2.1 nM.
For the compound `CCCN(C)C(=O)OC[C@H](C)/C=C/C=C(\C)[C@H]1OC(=O)C[C@H](O)CC[C@@](C)(O)[C@@H](OC(C)=O)/C=C/[C@@H]1C`, the GI50 is 39.1 nM in assay [1], greater than 1000 nM in assay [2] and 42.5 nM in assay [3]. Further, the Emax in assay [3] was -91.8%. Also, the IC50 on SF3b complexes came to 6.22 nM.
The matching figures for `CC[C@H](O)[C@@H](C)NC(=O)OC[C@H](C)/C=C/C=C(\C)[C@H]1OC(=O)C[C@H](O)CC[C@@](C)(O)[C@@H](OC(C)=O)/C=C/[C@@H]1C`: 555 nM, greater than 10000 nM, 327 nM, -92.8% and 53.4 nM.
With `CC(=O)O[C@H]1/C=C/[C@H](C)[C@@H](/C(C)=C/C=C/[C@@H](C)c2ccccn2)OC(=O)C[C@H](O)CC[C@@H]1C`, the GI50 in assay [1] was 421 nM; in assay [2] it was greater than 10000 nM; in assay [3], 2890 nM. The Emax in assay [3] is 28.1%. Also, at SF3b complexes, the 50% inhibitory concentration (IC50) was determined as 538 nM.
The matching figures for `C/C(=C\C=C\[C@@H](C)c1ccccn1)[C@H]1OC(=O)C[C@H](O)CC[C@@](C)(O)[C@@H](OC(=O)N2CCN(C3CCC3)CC2)/C=C/[C@@H]1C`: 36.7 nM, greater than 1000 nM, 38.9 nM, -83.6% and 7.23 nM.
As for `C/C(=C\C=C\[C@@H](C)c1cccnc1)[C@H]1OC(=O)C[C@H](O)CC[C@@](C)(O)[C@@H](OC(=O)N2CCN(C3CCCCCC3)CC2)/C=C/[C@@H]1C`, the 50% growth inhibitory concentration (GI50) in assay [1] is 13.2 nM; in assay [2], greater than 1000 nM; in assay [3] it was 11 nM. The Emax in assay [3] is -95.6%. In addition, the half-inhibitory concentration (IC50) at SF3b complexes is 2.34 nM.
Regarding `C/C(=C\C=C\[C@@H](C)c1ccccn1)[C@H]1OC(=O)C[C@H](O)CC[C@@](C)(O)[C@@H](OC(=O)N2CCN(C3CCOCC3)CC2)/C=C/[C@@H]1C`, the concentration for 50% growth inhibition (GI50) was 53.1 nM in assay [1], greater than 1000 nM in assay [2] and 37.2 nM in assay [3]. In addition, the Emax in assay [3] was -87.7%. The IC50 at SF3b complexes was 8.56 nM.
Take `C/C(=C\C=C\[C@@H](C)COC(=O)N1CCCC1)[C@H]1OC(=O)CCCC[C@@](C)(O)[C@@H](OC(=O)N2CCN(C)CC2)/C=C/[C@@H]1C`: the concentration for 50% growth inhibition (GI50) is 4.92 nM in assay [1], greater than 1000 nM in assay [2] and 2.38 nM in assay [3]. The Emax in assay [3] is -91.4%. The concentration for half-maximal inhibition (IC50) at SF3b complexes stood at 1.67 nM.
The corresponding values for `C/C(=C\C=C\[C@H](C)c1ccccn1)[C@H]1OC(=O)C[C@H](O)CC[C@@](C)(O)[C@@H](OC(=O)N2CCN(C)CC2)/C=C/[C@@H]1C` are 34.3 nM, greater than 1000 nM, 53.6 nM, -49.2% and 5.69 nM.
The matching figures for `C/C(=C\C=C\[C@@H](C)COC(=O)N1CC[C@@H](O)C1)[C@H]1NC(=O)CCCCC[C@@H](OC(=O)N2CCN(C)CC2)/C=C/[C@@H]1C`: 376 nM, greater than 10000 nM, 1180 nM, 19.1% and 267 nM.
The matching figures for `COC(=O)CC[C@H](C)/C=C/C=C(\C)[C@H]1OC(=O)C[C@H](O)CC[C@@](C)(O)[C@@H](OC(=O)N2CCN(C3CCCCCC3)CC2)/C=C/[C@@H]1C`: 103 nM, greater than 1000 nM, 51.3 nM, -96.9% and 4.54 nM.
As for `C/C(=C\C=C\C(C)c1cc(C)ccn1)[C@H]1OC(=O)C[C@H](O)CC[C@@](C)(O)[C@@H](OC(=O)N2CCN(C3CCCCCC3)CC2)/C=C/[C@@H]1C` (stereo partly drawn), the concentration for 50% growth inhibition (GI50) in assay [1] is 58.7 nM; in assay [2], greater than 1000 nM; in assay [3], 59.9 nM. Also, the Emax in assay [3] was -92.4%. For the same compound, the IC50 on SF3b complexes was 6.79 nM.
